From patent US8685977B2, “Chemical compounds” (Pfizer Limited, priority 2010, dated 2014)

What follows are molecules tested against T1, Nav1.7 (or SCN9A) channel (Homo sapiens, UniProt Q15858) (assay: Nav1.7 PatchXpress 7000 automated electrophysiology assay (HEK cells stably expressing hSCN9A)). Conditions: voltage-clamped at V1/2 of inactivation, read-out: Nav1.7 EIC50.
T1 construct: expressed in transfected cells
Type: cell-based
Method in brief: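 Automated whole-cell clamp (PatchXpress) of HEK cells stably expressing hSCN9A, at 22-24 °C, in extracellular buffer at pH 7.4. Cells were held at the measured V1/2 of inactivation, then stepped to 0 mV for 20 ms. Single-concentration % inhibition gave EIC50 = concentration × (100 − %inhibition)/%inhibition, excluding <20% or >80%.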

T1 sequence (Q15858 whole entry): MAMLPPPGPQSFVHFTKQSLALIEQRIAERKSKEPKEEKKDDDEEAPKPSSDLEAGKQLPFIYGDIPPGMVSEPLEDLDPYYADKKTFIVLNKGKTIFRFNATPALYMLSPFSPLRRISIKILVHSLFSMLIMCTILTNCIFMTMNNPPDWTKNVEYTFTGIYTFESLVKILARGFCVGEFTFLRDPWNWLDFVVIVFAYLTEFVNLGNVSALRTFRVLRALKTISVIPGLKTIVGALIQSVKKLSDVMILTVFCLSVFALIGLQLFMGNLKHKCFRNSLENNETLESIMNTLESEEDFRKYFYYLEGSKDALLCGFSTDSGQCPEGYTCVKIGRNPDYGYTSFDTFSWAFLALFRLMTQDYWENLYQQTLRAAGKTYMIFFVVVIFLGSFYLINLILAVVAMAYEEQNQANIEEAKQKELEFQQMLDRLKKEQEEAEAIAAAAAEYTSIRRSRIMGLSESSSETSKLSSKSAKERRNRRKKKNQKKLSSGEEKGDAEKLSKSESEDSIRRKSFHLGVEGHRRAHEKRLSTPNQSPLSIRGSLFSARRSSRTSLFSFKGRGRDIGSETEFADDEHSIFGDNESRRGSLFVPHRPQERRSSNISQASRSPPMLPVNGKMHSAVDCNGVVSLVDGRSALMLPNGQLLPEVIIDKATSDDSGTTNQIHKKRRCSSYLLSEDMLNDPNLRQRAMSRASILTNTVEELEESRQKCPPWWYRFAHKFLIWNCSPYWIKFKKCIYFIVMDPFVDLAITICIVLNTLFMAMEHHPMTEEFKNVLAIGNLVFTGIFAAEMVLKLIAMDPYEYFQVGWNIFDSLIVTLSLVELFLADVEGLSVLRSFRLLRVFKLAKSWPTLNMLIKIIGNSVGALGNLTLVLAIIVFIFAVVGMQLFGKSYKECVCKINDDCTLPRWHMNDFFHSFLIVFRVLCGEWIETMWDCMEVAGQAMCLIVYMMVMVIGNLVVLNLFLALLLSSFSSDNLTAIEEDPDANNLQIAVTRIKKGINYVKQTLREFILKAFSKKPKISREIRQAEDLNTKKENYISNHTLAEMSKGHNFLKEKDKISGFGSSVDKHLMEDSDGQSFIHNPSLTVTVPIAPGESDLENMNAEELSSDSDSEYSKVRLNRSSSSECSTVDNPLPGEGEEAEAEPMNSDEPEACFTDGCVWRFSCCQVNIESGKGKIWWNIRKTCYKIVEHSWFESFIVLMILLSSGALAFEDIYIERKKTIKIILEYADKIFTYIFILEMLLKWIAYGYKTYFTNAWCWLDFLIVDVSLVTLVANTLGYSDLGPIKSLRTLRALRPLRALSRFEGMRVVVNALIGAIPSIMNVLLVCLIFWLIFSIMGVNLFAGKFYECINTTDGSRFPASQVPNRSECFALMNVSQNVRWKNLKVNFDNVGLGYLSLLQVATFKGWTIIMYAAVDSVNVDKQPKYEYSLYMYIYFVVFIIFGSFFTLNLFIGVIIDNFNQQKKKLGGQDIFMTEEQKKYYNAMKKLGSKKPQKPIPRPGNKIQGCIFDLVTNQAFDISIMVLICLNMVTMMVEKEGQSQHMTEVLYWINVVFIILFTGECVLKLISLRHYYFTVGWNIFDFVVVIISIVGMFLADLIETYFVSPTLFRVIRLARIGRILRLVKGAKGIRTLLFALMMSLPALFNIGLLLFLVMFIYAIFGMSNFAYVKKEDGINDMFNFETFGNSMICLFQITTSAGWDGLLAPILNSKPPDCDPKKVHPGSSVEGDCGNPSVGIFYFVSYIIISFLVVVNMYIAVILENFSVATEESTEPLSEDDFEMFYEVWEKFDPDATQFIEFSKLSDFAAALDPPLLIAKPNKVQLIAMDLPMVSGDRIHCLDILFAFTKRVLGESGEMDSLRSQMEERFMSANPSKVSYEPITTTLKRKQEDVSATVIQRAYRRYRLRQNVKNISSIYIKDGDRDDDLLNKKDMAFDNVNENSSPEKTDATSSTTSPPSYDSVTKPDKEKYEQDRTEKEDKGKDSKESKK

Row | Structure (SMILES) | IC50 [µM]
1 | CS(=O)(=O)NC(=O)c1cc(F)c(Oc2cc(C(F)(F)F)ccc2Cl)cc1F [Example 121, 4-[2-chloro-5-(trifluoromethyl)phenoxy]-2,5-difluoro-N-(methylsulfonyl)benzamide] | > 1
2 | Cc1ccc(F)c(Oc2cc(F)c(C(=O)NS(C)(=O)=O)cc2F)c1 [Example 122, 2,5-difluoro-4-(2-fluoro-5-methylphenoxy)-N-(methylsulfonyl)benzamide] | 4.4
3 | CS(=O)(=O)NC(=O)c1cc(F)c(Oc2ccc(Cl)cc2Cl)cc1F [Example 123, 4-(2,4-dichlorophenoxy)-2,5-difluoro-N-(methylsulfonyl)benzamide] | 2
4 | CS(=O)(=O)NC(=O)c1cc(F)c(Oc2cccc(OC(F)(F)F)c2)cc1F [Example 124, 2,5-difluoro-N-(methylsulfonyl)-4-[3-(trifluoromethoxy)phenoxy]benzamide] | 0.49
5 | CS(=O)(=O)NC(=O)c1cc(F)c(Oc2cccc(C#N)c2)cc1F [Example 125, 4-(3-cyanophenoxy)-2,5-difluoro-N-(methylsulfonyl)benzamide] | > 3
6 | CS(=O)(=O)NC(=O)c1cc(F)c(Oc2ccc(F)cc2C2CC2)cc1F [Example 126, 4-(2-cyclopropyl-4-fluorophenoxy)-2,5-difluoro-N-(methylsulfonyl)benzamide] | > 1
7 | Cc1ccc(C)c(Oc2cc(F)c(C(=O)NS(C)(=O)=O)cc2F)c1 [Example 127, 4-(2,5-dimethylphenoxy)-2,5-difluoro-N-(methylsulfonyl)benzamide] | > 3
8 | CS(=O)(=O)NC(=O)c1cc(F)c(Oc2cc(F)cc(F)c2)cc1F [Example 128, 4-(3,5-difluorophenoxy)-2,5-difluoro-N-(methylsulfonyl)benzamide] | 11
9 | CS(=O)(=O)NC(=O)c1cc(F)c(Oc2ccc(Cl)cc2)cc1F [Example 129, 4-(4-chlorophenoxy)-2,5-difluoro-N-(methylsulfonyl)benzamide] | 1.3
10 | CS(=O)(=O)NC(=O)c1cc(F)c(Oc2ccc(F)cc2C#N)cc1F [Example 130, 4-(2-cyano-4-fluorophenoxy)-2,5-difluoro-N-(methylsulfonyl)benzamide] | > 3
11 | CS(=O)(=O)NC(=O)c1cc(F)c(Oc2ccc(F)cc2)cc1F [Example 131, 2,5-difluoro-4-(4-fluorophenoxy)-N-(methylsulfonyl)benzamide] | 3.8
12 | Cc1cc(C#N)cc(C)c1Oc1cc(F)c(C(=O)NS(C)(=O)=O)cc1F [Example 132, 4-(4-cyano-2,6-dimethylphenoxy)-2,5-difluoro-N-(methylsulfonyl)benzamide] | > 3
13 | Cc1ccc(Cl)cc1Oc1cc(F)c(C(=O)NS(C)(=O)=O)cc1F [Example 133, 4-(5-chloro-2-methylphenoxy)-2,5-difluoro-N-(methylsulfonyl)benzamide] | > 3
14 | COc1cccc(Oc2cc(F)c(C(=O)NS(C)(=O)=O)cc2F)c1 [Example 134, 2,5-difluoro-4-(3-methoxyphenoxy)-N-(methylsulfonyl)benzamide] | > 3
15 | COc1cc(C#N)ccc1Oc1cc(F)c(C(=O)NS(C)(=O)=O)cc1F [Example 135, 4-(4-cyano-2-methoxyphenoxy)-2,5-difluoro-N-(methylsulfonyl)benzamide] | > 3
16 | CS(=O)(=O)NC(=O)c1cc(F)c(Oc2cccc(C(F)(F)F)c2)cc1F [Example 138, 2,5-difluoro-N-(methylsulfonyl)-4-[3-(trifluoromethyl)phenoxy]benzamide] | 6.6
17 | Cc1ccc(Oc2cc(F)c(C(=O)NS(C)(=O)=O)cc2F)cc1C [Example 141, 4-(3,4-dimethylphenoxy)-2,5-difluoro-N-(methylsulfonyl)benzamide] | 2.5
18 | CS(=O)(=O)NC(=O)c1cc(F)c(Oc2cccc(F)c2)cc1F [Example 142, 2,5-difluoro-4-(3-fluorophenoxy)-N-(methylsulfonyl)benzamide] | > 3
19 | CS(=O)(=O)NC(=O)c1cc(F)c(Oc2ccc(Cl)c(F)c2)cc1F [Example 143, 4-(4-chloro-3-fluorophenoxy)-2,5-difluoro-N-(methylsulfonyl)benzamide] | 4.7
20 | COc1cc(Cl)cc(Oc2cc(F)c(C(=O)NS(C)(=O)=O)cc2F)c1 [Example 144, 4-(3-chloro-5-methoxyphenoxy)-2,5-difluoro-N-(methylsulfonyl)benzamide] | 2.3
21 | Cc1cc(Oc2cc(F)c(C(=O)NS(C)(=O)=O)cc2F)ccc1F [Example 145, 2,5-difluoro-4-(4-fluoro-3-methylphenoxy)-N-(methylsulfonyl)benzamide] | 1.2
22 | COc1ccc(Oc2cc(F)c(C(=O)NS(C)(=O)=O)cc2F)c(Cl)c1 [Example 146, 4-(2-chloro-4-methoxyphenoxy)-2,5-difluoro-N-(methylsulfonyl)benzamide] | > 3
23 | CCc1cccc(Oc2cc(F)c(C(=O)NS(C)(=O)=O)cc2F)c1 [Example 147, 4-(3-ethylphenoxy)-2,5-difluoro-N-(methylsulfonyl)benzamide] | > 3
24 | CCOc1cc(C)ccc1Oc1cc(F)c(C(=O)NS(C)(=O)=O)cc1F [Example 148, 4-(2-ethoxy-4-methylphenoxy)-2,5-difluoro-N-(methylsulfonyl)benzamide] | > 1

Row | Structure (SMILES) | IC50 [µM]
25 | CS(=O)(=O)NC(=O)c1cc(F)c(Oc2cccc(Cl)c2F)cc1F [Example 149, 4-(3-chloro-2-fluorophenoxy)-2,5-difluoro-N-(methylsulfonyl)benzamide] | > 1
26 | Cc1ccc(Oc2cc(F)c(C(=O)NS(C)(=O)=O)cc2F)cc1Cl [Example 151, 4-(3-chloro-4-methylphenoxy)-2,5-difluoro-N-(methylsulfonyl)benzamide] | 0.52
27 | Cc1cc(F)ccc1Oc1cc(F)c(C(=O)NS(C)(=O)=O)cc1F [Example 154, 2,5-difluoro-4-(4-fluoro-2-methylphenoxy)-N-(methylsulfonyl)benzamide] | > 3
28 | Cc1cc(Cl)cc(Oc2cc(F)c(C(=O)NS(C)(=O)=O)cc2F)c1 [Example 155, 4-(3-chloro-5-methylphenoxy)-2,5-difluoro-N-(methylsulfonyl)benzamide] | 5.4
29 | CS(=O)(=O)NC(=O)c1cc(F)c(Oc2cccc(Cl)c2)cc1F [Example 156, 4-(3-chlorophenoxy)-2,5-difluoro-N-(methylsulfonyl)benzamide] | > 3
30 | Cc1cccc(Oc2cc(F)c(C(=O)NS(C)(=O)=O)cc2F)c1 [Example 157, 2,5-difluoro-4-(3-methylphenoxy)-N-(methylsulfonyl)benzamide] | 6.8
31 | CC(C)c1cccc(Oc2cc(F)c(C(=O)NS(C)(=O)=O)cc2F)c1 [Example 158, 2,5-difluoro-4-(3-isopropylphenoxy)-N-(methylsulfonyl)benzamide] | 0.84
32 | COc1cccc(Oc2ccc(C(=O)NS(C)(=O)=O)cc2)c1 [Example 161, 4-(3-methoxyphenoxy)-N-(methylsulfonyl)benzamide] | 28
33 | Cc1ccc(C)c(Oc2ccc(C(=O)NS(C)(=O)=O)cc2)c1 [Example 162, 4-(2,5-dimethylphenoxy)-N-(methylsulfonyl)benzamide] | 28
34 | CS(=O)(=O)NC(=O)c1ccc(Oc2cccc(C(F)(F)F)c2)cc1 [Example 163, N-(methylsulfonyl)-4-[3-(trifluoromethyl)phenoxy]benzamide] | 12
35 | CS(=O)(=O)NC(=O)c1ccc(Oc2ccccc2Cl)cc1 [Example 164, 4-(2-chlorophenoxy)-N-(methylsulfonyl)benzamide] | > 10
36 | CS(=O)(=O)NC(=O)c1ccc(Oc2cc(F)ccc2F)cc1 [Example 166, 4-(2,5-difluorophenoxy)-N-(methylsulfonyl)benzamide] | 17
37 | Cc1ccc(Oc2ccc(C(=O)NS(C)(=O)=O)cc2)cc1C [Example 167, 4-(3,4-dimethylphenoxy)-N-(methylsulfonyl)benzamide] | 12
38 | CS(=O)(=O)NC(=O)c1ccc(Oc2ccc(OC(F)(F)F)cc2)cc1 [Example 168, N-(methylsulfonyl)-4-[4-(trifluoromethoxy)phenoxy]benzamide] | 1.6
39 | CC(C)c1ccccc1Oc1ccc(C(=O)NS(C)(=O)=O)cc1 [Example 169, 4-(2-isopropylphenoxy)-N-(methylsulfonyl)benzamide] | 21
40 | Cc1cc(Oc2ccc(C(=O)NS(C)(=O)=O)cc2)ccc1Cl [Example 170, 4-(4-chloro-3-methylphenoxy)-N-(methylsulfonyl)benzamide] | 1.9
41 | CS(=O)(=O)NC(=O)c1ccc(Oc2ccccc2F)cc1 [Example 171, 4-(2-fluorophenoxy)-N-(methylsulfonyl)benzamide] | > 10
42 | Cc1ccc(Oc2ccc(C(=O)NS(C)(=O)=O)cc2)c(C)c1 [Example 172, 4-(2,4-dimethylphenoxy)-N-(methylsulfonyl)benzamide] | 16
43 | CC(C)c1ccc(Oc2ccc(C(=O)NS(C)(=O)=O)cc2)cc1 [Example 173, 4-(4-isopropylphenoxy)-N-(methylsulfonyl)benzamide] | 1.2
44 | Cc1cc(C)cc(Oc2ccc(C(=O)NS(C)(=O)=O)cc2)c1 [Example 174, 4-(3,5-dimethylphenoxy)-N-(methylsulfonyl)benzamide] | 20
45 | COc1cc(Cl)ccc1Oc1ccc(C(=O)NS(C)(=O)=O)cc1 [Example 175, 4-(4-chloro-2-methoxyphenoxy)-N-(methylsulfonyl)benzamide] | > 10
46 | CS(=O)(=O)NC(=O)c1ccc(Oc2ccccc2OCc2ccccc2)cc1 [Example 176, 4-[2-(benzyloxy)phenoxy]-N-(methylsulfonyl)benzamide] | > 10
47 | Cc1ccc(Cl)cc1Oc1ccc(C(=O)NS(C)(=O)=O)cc1 [Example 177, 4-(5-chloro-2-methylphenoxy)-N-(methylsulfonyl)benzamide] | 16
48 | CS(=O)(=O)NC(=O)c1ccc(Oc2ccc(OCc3ccccc3)cc2)cc1 [Example 178, 4-[4-(benzyloxy)phenoxy]-N-(methylsulfonyl)benzamide] | 1.3
